Assay results published in patent publication US20100330148A1, “MEHODS AND COMPOSITIONS FOR INHIBITING IMPDH-1 ISOFORM 1” (The Johns Hopkins University, priority 2006, published 2010).
Where “and” joins values, the source holds several entries; their conditions need not be identical. Equal values may be shown once.

Experiments:
[1] = tested on: human umbilical vein endothelial cells (HUVEC); experiment: HUVEC proliferation, [3H]-thymidine incorporation; assay type: cell-based
Method: (§1) Library construction. 32,000 FDA drug approvals obtained by Freedom of Information Act requests were condensed to 3,400 unique drug formulations. Drugs were purchased from Sigma, Spectrum Chemicals, MP Biomedicals, The Johns Hopkins Hospital pharmacy, Biomol, and Tocris. 10 mM stock solutions were made using DMSO, water, or ethanol as solvents. Drugs were arrayed in 96-well plates and screened at a final concentration of 10 μM. Cells were incubated with drug for 36 h and proliferation was measured by pulsing with 1 μCi [^3H]-thymidine for 8 h followed by absorption onto glass filters and scintillation counting.
(§2) Statistical analysis. IC50 measurements were carried out in triplicate, and analyzed using four parameter logarithmic analysis. Values are presented +/− the standard error of the mean. P-values were calculated using the Student's T-test. IC50 measurements are carried out using standard assays, and include assays described in Gilbert H J, Lowe C R, Drabble W T. Biochem J. 1979, 183:481-94; and Xiang, B., Taylor, J. C., and Markham, G. D. J. Biol. Chem., 271, 1435 (1996); the contents of which are incorporated herein by reference.
A library of 1,850 FDA-approved drugs and 600 drugs that entered the clinic via approval in a foreign country or phase II clinical trials was created. […]

[2] = tested on: VEGF and bFGF stimulated angiogenesis (new blood vessel formation); experiment: Matrigel plug angiogenesis assay in mice; assay type: in vivo, mouse; settings: 60 mg/kg/day s.c., 10 days after plug implantation, vs vehicle, p<0.002
Method: In vivo angiogenesis. Female C57BL/6NCr 5-week old, 25-30 g mice were purchased from NCI and treated in accordance with Johns Hopkins ACUC procedures. In all animal experiments the MPA prodrug mycophenolate mofetil i.v. formulation (Roche) was used. Mice were pretreated with drug for three days and then implanted with 0.5 mL of Matrigel (BD Biosciences) containing 100 ng/mL VEGF and 150 ng/mL bFGF. Drug treatment was continued daily for 10 days, mice were sacrificed, and plugs were harvested, fixed in neutral buffered formalin, and processed for histology using MAS-trichrome staining. The entire Matrigel plug was photographed at 100× and erythrocyte-filled blood vessels were counted per field.
Matrigel plugs' containing VEGF and bFGF were subcutaneously implanted into mice. The control group was treated with saline vehicle and the MPA group was treated with 60 or 120 mg/kg/day of drug. […] To quantify these differences we counted erythrocyte-filled blood vessels per 100× field (FIG. 3E) (Fahmy, R. G., Dass, C. R., Sun, L. Q., Chesterman, C. N. & Khachigian, L. M. (2003) Nat. Med. 9, 1026-1032), and observed a 69% decrease in new blood vessel formation in mice treated with MPA in comparison with vehicle control (p<0.002). Thus, MPA is capable of inhibiting angiogenesis at a therapeutically achievable dose in vivo.

Jurkat T cells = experiment: Jurkat T-cell proliferation, [3H]-thymidine incorporation; assay type: cell-based
Method: as §1, §2
MPA is an immunosuppressive drug widely used to prevent rejection of transplanted organs (Lipsky, J. J: (1996) Lancet 348, 1357-1359.). The mechanism of action in the immune system is well established—MPA inhibits de novo biosynthesis of purines in T and B lymphocytes (Allison, A. C. & Eugui, E. M. (2000) Immunopharmacology 47, 85-118.). […] Thus, a comparison of HUVEC to Jurkat T cells for sensitivity to MPA in the presence and absence of guanine was carried out. […] Addition of guanine at or above 20 μM rendered Jurkat T cells resistant to MPA. Similar to Jurkat T cells, inhibition of HUVEC proliferation is also reversed by guanine in a dose-dependent manner (FIG. 1B). Unlike Jurkat T cells, however, HUVECs are less sensitive to guanine, the cause of which remains unknown. Similar reversal of MPA inhibition is also seen in HUVEC and Jurkat T-cells with the addition of exogenous guanosine and deoxyguanosine (data not shown).

HUVEC = experiment: Cell cycle analysis of HUVEC; assay type: cell-based, human
Text: It has been shown that MPA causes cell cycle arrest in activated T and B lymphocytes at G1 (Laliberte, J., Yee, A., Xiong, Y. & Mitchell, B. S. (1998) Blood 91, 2896-2904.). Therefore, the effect of MPA on endothelial cell cycle progression was examined.

[3] = human renal transplant patients, chronic oral treatment; cited from earlier work
RENCA cells = experiment: Murine renal cell carcinoma (RENCA) tumor model; assay type: in vivo, mouse; settings: mice
Method: Renal cell tumor model. Female BALB/C5-6 week old, 25-30 g mice were purchased from NCI. Logarithmically growing RENCA cells (5×10^5) in 50 μL 50% PBS, 50% Matrigel were injected into the renal subcapsule through an incision in the left flank (Drevs, J., Hofmann, I., Hugenschmidt, H., Wittig, C., Madjar, H., Muller, M., Wood, J., Martiny-Baron, G., Unger, C. & Marme, D. (2000) Cancer Res. 60, 4819-4824.). The mice were sacrificed 3.5 weeks after surgery and the primary tumors were dissected and fixed for immunohistochemistry. For CD31 analysis eight fields with the highest level of angiogenesis were selected per tumor for quantification using ImagePro Plus software (Media Cybernetics), and represented as mean percentage area occupied by CD31 positive blood vessels.
Angiogenesis has been implicated in tumor growth among a number of other diseases. Although MPA inhibits fast-growing tumor cell lines in culture and in mouse xenograph experiments (Tressler, R. J., Garvin, L. J. & Slate, D. L. (1994) Int. J. Cancer 57, 568-573, Carter, S. B., Franklin, T. J., Jones, D. F., Leonard, B. J., Mills, S. D., Turner, R. W. & Turner, W. B. (1969) Nature 223, 848-850), it is unclear whether MPA also affects tumor-associated angiogenesis. We determined the efficacy of MPA in inhibiting tumor-associated angiogenesis in a murine renal cell carcinoma (RENCA) model (Salup, R. R. & Wiltrout, R. H. (1986) Cancer Res. 46, 3358-3363). MPA inhibited the growth of the primary tumor in a dose-dependent fashion, causing a 34% and 27% decrease in volume and weight, respectively, at 60 mg/kg/day and a 64% decrease in both volume and weight at 120 mg/kg/day (p<0.001) (FIG. 4A). The decrease in tumor growth caused by MPA at 120 mg/kg/day was accompanied by a 48% decrease in the area of CD31 positive staining blood vessels per 200× field (p<0.001).

[4] = small cohorts of cancer patients (<35), diethanolamine salt; cited from earlier work

SMILES	IC50 ([1]; Homo sapiens, HUVEC, [3H]-thymidine incorporation, +/- standard error of the mean) [nM]	MPA inhibition of HUVEC proliferation with exogenous guanine ([1]; guanine 10 μM and 20 μM)	decrease in new blood vessel formation (erythrocyte-filled blood vessels per 100× field) [2] [%]	IC50 (Jurkat T cells; Homo sapiens, Jurkat, [3H]-thymidine incorporation, +/- standard error of the mean) [nM]	MPA inhibition of Jurkat T-cell proliferation with exogenous guanine (Jurkat T cells; guanine 10 μM)	MPA inhibition of Jurkat T-cell proliferation with exogenous guanine (Jurkat T cells; guanine 20 μM and 50 μM)	cell cycle effect (HUVEC; 1 μM MPA)	population of cells in S phase (HUVEC; 1 μM MPA (control 12%)) [%]	population of cells in G2/M phase (HUVEC; 1 μM MPA (control 17.8%)) [%]	population of cells in G1 phase (HUVEC; 1 μM MPA (control 71%)) [%]	cell cycle effect of MPA after addition of guanosine (HUVEC; 1 μM MPA + 50 μM guanosine)	half life [3] [h]	peak plasma level [3] [µM]	decrease in primary tumor volume (RENCA cells; 60 mg/kg/day) [%]	decrease in primary tumor weight (RENCA cells; 60 mg/kg/day) [%]	decrease in primary tumor volume (RENCA cells; 120 mg/kg/day, p<0.001) [%]	decrease in primary tumor weight (RENCA cells; 120 mg/kg/day, p<0.001) [%]	decrease in area of CD31 positive staining blood vessels per 200× field (RENCA cells; 120 mg/kg/day, p<0.001, 120 mg/kg/day)	toxicity in patients [4]
COc1c(C)c2c(c(O)c1C/C=C(\C)CCC(=O)O)C(=O)OC2 [MPA, mycophenolic acid]	99.2	partially reversed	69	128	unaffected	completely reversed	G1/S cell cycle arrest	6.5	12.4	81	completely reversed	18	75	34	27	64	64	49% and 48%	–
COc1c(C)c2c(c(O)c1CC=C(C)CCC(=O)O)C(=O)OC2.OCCNCCO [diethanolamine salt of MPA]	–	–	–	–	–	–	–	–	–	–	–	–	–	–	–	–	–	–	considerable dose-limiting gastrointestinal toxicity
